Values after ≈ are worked out from the molar mass of the structure shown.
Columns and labels:
[1] = test system: Streptococcus pyogenes; assay: Antimicrobial activity against Streptococcus pyogenes harboring ParE A53S mutant assessed as growth inhibition; assay type: functional
[2] = test system: Staphylococcus aureus; assay: Antibacterial activity against Staphylococcus aureus ATCC 29213 assessed as growth inhibition in presence of 50% horse serum; assay type: functional
[3] = test system: Haemophilus influenzae; assay: Antibacterial activity against Haemophilus influenzae 49247 assessed as growth inhibition; assay type: functional
[4] = test system: Staphylococcus aureus; assay: Antimicrobial activity against Staphylococcus aureus harboring GyrB T173N mutant assessed as growth inhibition; assay type: functional
[5] = test system: Staphylococcus aureus; assay: Antibacterial activity against Staphylococcus aureus ATCC 29213 assessed as growth inhibition; assay type: functional
[6] = test system: Streptococcus pyogenes; assay: Antibacterial activity against Streptococcus pyogenes 51339 assessed as growth inhibition; assay type: functional
[7] = test system: Staphylococcus aureus; assay: Inhibition of Staphylococcus aureus DNA gyrase ATPase subunit GyrA2/GyrB2 after 60 mins by malachite green staining assay

Row | SMILES | MIC [1] [mg/L] | MIC [2] [mg/L] | MIC [3] [mg/L] | MIC [4] [mg/L] | MIC [5] [mg/L] | MIC [6] [mg/L] | inhibitory concentration [7] [µg/mL]
1 | CCNC(=O)Nc1nc2cc(-c3cnc(C4(O)CNC4)nc3)cc(-c3ccccn3)c2s1 | > 16 | > 16 | > 16 | > 16 | > 16 | 8 (≈ 17.9 µM) | 0.029
2 | CCNC(=O)Nc1nc2cc(-c3cnc(C(O)C4CC4)nc3)cc(-c3ccccn3)c2s1 (racemic) | 1 (≈ 2.24 µM) | 0.25 | 0.5 (≈ 1.12 µM) | 0.25 (≈ 0.56 µM) | 0.06 (≈ 0.134 µM) | 0.06 (≈ 0.134 µM) | 0.008
3 | CCNC(=O)Nc1nc2cc(-c3cnc(C(O)CO)nc3)cc(-c3ccccn3)c2s1 (racemic) | 2 (≈ 4.58 µM) | 0.5 | 0.5 (≈ 1.15 µM) | 2 (≈ 4.58 µM) | 0.12 (≈ 0.275 µM) | 0.12 (≈ 0.275 µM) | 0.006
4 | CCNC(=O)Nc1nc2cc(-c3cnc([C@@H](O)[C@H](O)C(F)F)nc3)cc(-c3ccccn3)c2s1 (racemic) | 1 (≈ 2.06 µM) | 0.25 | 0.25 (≈ 0.514 µM) | 0.5 (≈ 1.03 µM) | 0.06 (≈ 0.123 µM) | 0.12 (≈ 0.247 µM) | 0.004
5 | CCNC(=O)Nc1nc2cc(-c3cnc([C@@H](O)[C@@H](C)O)nc3)cc(-c3ccccn3)c2s1 (racemic) | 1 (≈ 2.22 µM) | 0.25 | 1 (≈ 2.22 µM) | 1 (≈ 2.22 µM) | 0.25 (≈ 0.555 µM) | 0.12 (≈ 0.266 µM) | 0.007
6 | CCNC(=O)Nc1nc2cc(-c3cnc(C(C)(O)CO)nc3)cc(-c3ccccn3)c2s1 (racemic) | 2 (≈ 4.44 µM) | 0.25 | 0.5 (≈ 1.11 µM) | 1 (≈ 2.22 µM) | 0.12 (≈ 0.266 µM) | 0.12 (≈ 0.266 µM) | 0.006
7 | CCNC(=O)Nc1nc2cc(-c3cnc(C4(O)COC4)nc3)cc(-c3ccccn3)c2s1 | 2 (≈ 4.46 µM) | 0.12 | 0.5 (≈ 1.11 µM) | 0.5 (≈ 1.11 µM) | 0.06 (≈ 0.134 µM) | 0.12 (≈ 0.268 µM) | 0.006
8 | CCNC(=O)Nc1nc2cc(-c3cnc([C@@H](O)[C@H](O)C(F)(F)F)nc3)cc(-c3ccccn3)c2s1 (racemic) | 1 (≈ 1.98 µM) | 0.25 | 0.5 (≈ 0.991 µM) | 0.25 (≈ 0.496 µM) | 0.06 (≈ 0.119 µM) | 0.12 (≈ 0.238 µM) | 0.005
9 | CCNC(=O)Nc1nc2cc(-c3cnc(C4(O)CCCCC4)nc3)cc(-c3ccccn3)c2s1 | > 16 |  | > 16 | > 16 | 8 (≈ 16.9 µM) | 8 (≈ 16.9 µM) | 0.054
10 | CCNC(=O)Nc1nc2cc(-c3cnc(C(O)C(C)(C)C)nc3)cc(-c3ccccn3)c2s1 (racemic) | 2 (≈ 4.32 µM) | 2 |  | 0.25 (≈ 0.54 µM) | 0.12 (≈ 0.259 µM) | 0.12 (≈ 0.259 µM) | 0.012
11 | CCNC(=O)Nc1nc2cc(-c3cnc(C4(O)CCN(C)CC4)nc3)cc(-c3ccccn3)c2s1 | 8 (≈ 16.3 µM) | 0.5 | 8 (≈ 16.3 µM) | 8 (≈ 16.3 µM) | 1 (≈ 2.04 µM) | 1 (≈ 2.04 µM) | 0.011
12 | CCCC(O)c1ncc(-c2cc(-c3ccccn3)c3sc(NC(=O)NCC)nc3c2)cn1 (racemic) | 2 (≈ 4.46 µM) | 0.25 | 1 (≈ 2.23 µM) | 0.25 (≈ 0.557 µM) | 0.03 (≈ 0.0669 µM) | 0.06 (≈ 0.134 µM) | 0.007
13 | CCNC(=O)Nc1nc2cc(-c3cnc(C(O)CC)nc3)cc(-c3ccccn3)c2s1 (racemic) | 1 (≈ 2.3 µM) | 0.25 | 1 (≈ 2.3 µM) | 0.25 (≈ 0.575 µM) | 0.06 (≈ 0.138 µM) | 0.06 (≈ 0.138 µM) | 0.006
14 | CCNC(=O)Nc1nc2cc(-c3cnc([C@@H](O)[C@@H](O)C(F)(F)F)nc3)cc(-c3ccccn3)c2s1 (racemic) | 1 (≈ 1.98 µM) | 0.25 | 0.5 (≈ 0.991 µM) | 0.5 (≈ 0.991 µM) | 0.12 (≈ 0.238 µM) | 0.12 (≈ 0.238 µM) | 0.004
15 | CCNC(=O)Nc1nc2cc(-c3cnc(C4(O)CCOCC4O)nc3)cc(-c3ccccn3)c2s1 (racemic) | 2 (≈ 4.06 µM) | 0.5 | 2 (≈ 4.06 µM) | 4 (≈ 8.12 µM) | 0.5 (≈ 1.02 µM) | 0.12 (≈ 0.244 µM) | 0.009
16 | CCNC(=O)Nc1nc2cc(-c3cnc(C4(O)CCCC4)nc3)cc(-c3ccccn3)c2s1 | 2 (≈ 4.34 µM) | 0.5 | 1 (≈ 2.17 µM) | 0.25 (≈ 0.543 µM) | 0.03 (≈ 0.0651 µM) | 0.12 (≈ 0.261 µM) | 0.005
17 | CCNC(=O)Nc1nc2cc(-c3cnc(C4(O)CCOCC4)nc3)cc(-c3ccccn3)c2s1 | 2 (≈ 4.2 µM) | 0.12 | 1 (≈ 2.1 µM) | 0.25 (≈ 0.525 µM) | 0.06 (≈ 0.126 µM) | 0.12 (≈ 0.252 µM) | 0.005
18 | CCNC(=O)Nc1nc2cc(-c3cnc(C4(O)CCSCC4)nc3)cc(-c3ccccn3)c2s1 | 4 (≈ 8.12 µM) | 1 | 2 (≈ 4.06 µM) | 0.25 (≈ 0.507 µM) | 0.12 (≈ 0.244 µM) | 0.5 (≈ 1.01 µM) | 0.005
19 | CCNC(=O)Nc1nc2cc(-c3cnc(C4(O)CCS(=O)(=O)CC4)nc3)cc(-c3ccccn3)c2s1 | 2 (≈ 3.81 µM) | 0.5 | 1 (≈ 1.91 µM) | 1 (≈ 1.91 µM) | 0.25 (≈ 0.477 µM) | 0.25 (≈ 0.477 µM) | 0.006
20 | CCNC(=O)Nc1nc2cc(-c3cnc(C(O)(CC)CC)nc3)cc(-c3ccccn3)c2s1 | 8 (≈ 17.3 µM) | 4 | 8 (≈ 17.3 µM) | 1 (≈ 2.16 µM) | 0.25 (≈ 0.54 µM) | 0.5 (≈ 1.08 µM) | 0.017
